Measured values from patent US20190291112A1, “DROPLET MICROFLUIDICS FOR DRUG SCREENING” (University of Macau, priority 2018, published 2019).
Values belong to the compound of their own block, whether it stands above or below them.

Tests used:
Jurkat cells [1] = assay: 384-well microtiter plate drug screening assay (Alamar Blue); assay type: cell-based, human; settings: 384-well plate
Procedure: (§1) Jurkat E6.1 cells (ATCC® TIB-152™) and MDA-MB-231 cells (ATCC® HTB-26™) were used as models for suspended and adherent cancer cell lines respectively. Jurkat cell line was derived from human acute T cell leukemia, whereas MDA-MB-231 cell line was derived from human metastatic breast adenocarcinoma.
(§2) Microtiter plate drug screening assays were carried out on 96-well clear round flat-bottom plates (Corning, USA) or 384-well white square flat-bottom plates (Corning, USA).
(§3) First, 5.0×10^5 or 1.0×10^5 cells were seeded per well for 96-well and 384-well plates respectively. Drugs were diluted with Dulbecco's phosphate-buffered saline (DPBS) (Life Technologies, USA), and subsequently added to achieve final drug concentrations as indicated on the graphs. Afterwards, the plates were transferred to humidified incubator at 37° C. supplemented with 5% CO2 for 16-24 h incubation. Finally, Alamar Blue assay was used to measure cell viability. Fluorescence intensity (Ex. 560 nm, Em. 590 nm) using auto-cutoff was measured from bottom on plate reader (Molecular Devices SpectraMax MS Plate Reader, USA). Cells treated with 0.1% dimethyl sulfoxide (DMSO) were used as negative control, while no cells were added to blank control. All experiments were performed in triplicate for 96-well plates and in quadruplicates for 384-well relates.
(§4) For microliter plate assays, average relative fluorescence signal measured by plate reader from 6 reads of each well was used as raw data point. Cell viability was calculated as follows: […]
(§5) where Sample represented raw data points of each sample well, whereas DMSO control and Blank represented average raw data points of all DMSO control and Blank wells, respectively.

MDA-MB-231 cells [2] = assay: as above; assay type: cell-based, human; settings: 384-well plate
Procedure: as §1, §2, §3, §4, §5

MDA-MB-231 cells [3] = assay: On chip drug screening assay (ethidium homodimer 1 staining); assay type: cell-based, human; settings: for IC50: Homo sapiens
Procedure: as §1
On chip drug screening was performed using the PDMS-based microfluidic chip as described above. A 500 μL glass syringe (Hamilton, USA) and polytetrafluoroethylene (PTFE) tubings with appropriate bore (Cole Parmer, USA) was used to connect between the syringe pump (Harvard Apparatus PHD Ultra Syringe Pump, USA) and the microfluidic chip. Fluorinert® FC-40 (Sigma-Aldrich, USA) supplemented with 2% 008-Fluorosurfactant (Ran Biotechnologies, USA) was used as oil phase; relevant cell culture medium, supplemented with 1% (w/v) methyl cellulose (Sigma-Aldrich, USA) was used as aqueous phase. Cells treated with 0.1% dimethyl sulfoxide (DMSO) were used as negative control.
Briefly, cells at final concentrations of 1-2×10^6 cells per mL were aliquoted in 0.2 mL PCR tubes, then mixed with corresponding drugs and 2 μM ethidium homodimer 1 (Life Technologies, USA) by manual pipetting. Next, […], cell-drug mixtures were loaded into the tubing, consecutively segregated by oil phase at withdrawal rate of 200 μL/h by syringe pump. After loading all mixtures, the tubing was inserted into the microfluidic chip, which was back-flushed with oil phase at 500 μL/h by syringe pump. After that, the mixtures were infused at 25 μL/h by syringe pump. Finally, the inlet and outlet tubings were cut and sealed with Vaseline (Vaseline, USA). The chips were placed in 150 mm cell culture dish (Coming, USA) containing wet paper towels, and transferred to humidified incubator at 37° C. supplemented with 5% CO2 for 16-24 h incubation. Brightfield and red fluorescence images (Ex. 531/40 nm, Em. 593/40 nm) were taken under 10× magnification (Life Technologies EVOS FL Imaging System, USA).
For on chip assays, brightfield and red fluorescence images were initially processed by ImageJ v.1.50i, Cell counting was either performed manually or by Matlab v.R201.5a based on the workflow shown on FIG. 5B. Briefly, cells from brightfield and red fluorescence images were detected separately using a heuristic Hough Transformation model based on threshold implementation on circular diameter and pixel intensity. Next, each recognized cell was dissected into 10×10 pixels matrix for analysis of its pixel intensity. Subsequently, two layers of multi-radii analysis of pixel intensity around the center of each matrix distinguished signal from noise. Afterwards, cells were distinguished from noise based on the brightfield image, whereas cell viability was determined by signal intensity of corresponding red fluorescence image. Finally, positional information (defined by row: x, and column: y) and size (defined by radius: r) of discrete image matrix was used to classify each cell as “live” or “dead”. The total number of cells in each image corresponding to each droplet formation well on chip was summarized as a table in CSV format for calculation of cell viability. […]
For on chip assays, the number of cells was counted in brightfield and red fluorescence images from each well respectively. Cell viability was calculated as follows: […]
where Total cells and Dead cells referred to the total number of cells counted from brightfield and red fluorescence images, respectively. […]

Jurkat cells [4] = assay: as above; assay type: cell-based, human
Procedure: Jurkat E6.1 cells (ATCC® TIB-152™) and MDA-MB-231 cells (ATCC® HTB-26™) were used as models for suspended and adherent cancer cell lines respectively. Jurkat cell line was derived from human acute T cell leukemia, whereas MDA-MB-231 cell line was derived from human metastatic breast adenocarcinoma. On chip drug screening was performed using the PDMS-based microfluidic chip as described above. A 500 μL glass syringe (Hamilton, USA) and polytetrafluoroethylene (PTFE) tubings with appropriate bore (Cole Parmer, USA) was used to connect between the syringe pump (Harvard Apparatus PHD Ultra Syringe Pump, USA) and the microfluidic chip. Fluorinert® FC-40 (Sigma-Aldrich, USA) supplemented with 2% 008-Fluorosurfactant (Ran Biotechnologies, USA) was used as oil phase; relevant cell culture medium, supplemented with 1% (w/v) methyl cellulose (Sigma-Aldrich, USA) was used as aqueous phase. Cells treated with 0.1% dimethyl sulfoxide (DMSO) were used as negative control. […] Next, […], cell-drug mixtures were loaded into the tubing, consecutively segregated by oil phase at withdrawal rate of 200 μL/h by syringe pump. After loading all mixtures, the tubing was inserted into the microfluidic chip, which was back-flushed with oil phase at 500 μL/h by syringe pump. After that, the mixtures were infused at 25 μL/h by syringe pump. Finally, the inlet and outlet tubings were cut and sealed with Vaseline (Vaseline, USA). […] Brightfield and red fluorescence images (Ex. 531/40 nm, Em. 593/40 nm) were taken under 10× magnification (Life Technologies EVOS FL Imaging System, USA). […] For on chip assays, the number of cells was counted in brightfield and red fluorescence images from each well respectively.

Jurkat cells [5] = assay: 96-well microtiter plate drug screening assay (Alamar Blue); assay type: cell-based, human; settings: 96-well plate
Procedure: as §1, §2, §3, §4, §5

MDA-MB-231 cells [6] = assay: as above; assay type: cell-based, human; settings: 96-well plate
Procedure: as §1, §2, §3, §4, §5

cancer cell lines = assay: Carrier fluid and surfactant optimization, cell viability on chip; assay type: cell-based; settings: surfactant, all tested concentrations
Description: Firstly, we optimized the carrier fluid or oil phase to assure cell viability on chip for a minimum of 7 days for cancer cell lines. Commercial oils including Fluorinert® series oils, e.g. fluorocarbon oils, silicone oil, and mineral oil in combination with different surfactants (either mixed with oil phase or aqueous phase) at various concentrations have been tested. Among these, Fluorinert® FC-40 supplemented with 2% 008-Fluorosurfactant by Ran Biotechnologies provided optimal properties in terms of viscosity, volatility and droplet stability. Fluorosurfactant was added to prevent droplets from coalescence and cross-contamination of droplet contents when they touched each other (FIG. 6A). In addition, fluorosurfactant-emulsified droplets prevented fluorescent dye from adsorbing to the hydrophobic PDMS walls of the channel (FIG. 6B) or migrating into the oil phase (FIGS. 6C and 6D), in order to maintain constant drug concentrations in droplets. […] Droplets containing red fluorescent dye were incubated at 37° C. for 15 h, but no trace of fluorescent dye was observed along the PDMS walls as the droplet shrank due to evaporation. […]

cells = assay: Time-lapse imaging of cells incubated with viability indicator dye; assay type: cell-based; settings: 2 μM, within 48 h post-treatment
Procedure: Thirdly, different cell viability indicator dyes were tested for staining efficiency, indicator reliability and cytotoxicity on chip. Since the sample fluid was premixed before loading to the chip, we tested for different cell viability indicator dyes and variant concentrations to ensure that the indicator dye had no impact on cell viability, at least within the time frame of the drug susceptibility test. Eventually, ethidium homodimer 1 staining was adopted to indicate dead cells. Ethidium homodimer 1 is a cell-impermeable, high affinity nucleic acid stain emitting strong red fluorescence after binding to DNA. It gave strong red fluorescence after cells were treated with drug but not DMSO) (FIG. 12).

IC50 (Jurkat cells [1]; Homo sapiens, 16-24 h): 1000 to 2200 nM | IC50 (MDA-MB-231 cells [2]; Homo sapiens): 500 nM | IC50 (MDA-MB-231 cells [3]): 5500 nM | IC50 (Jurkat cells [4]; Homo sapiens, 16-24 h): 1000 to 2200 nM | IC50 (Jurkat cells [5]; Homo sapiens, 16-24 h): 1000 to 2200 nM | IC50 (MDA-MB-231 cells [6]; Homo sapiens): 600 nM
Compound: COc1cccc2c1C(=O)c1c(O)c3c(c(O)c1C2=O)C[C@@](O)(C(=O)CO)C[C@@H]3O[C@H]1C[C@H](N)[C@@H](O)[C@H](C)O1 [epirubicin]
cell viability leveled off (MDA-MB-231 cells [3]; after reaching IC50): approximately 50%

Compound: CCCCCCCCCCCCOS(=O)(=O)[O-].[Na+] [sodium dodecyl sulfate]
effect on cell viability (cancer cell lines): compromised cell viability

IC50 (MDA-MB-231 cells [3]): 33300 nM
Compound: O=C(CCCCCCC(=O)Nc1ccccc1)NO [vorinostat]
cell viability plateau (Jurkat cells [1]; all doses tested): above 50% | cell viability plateau (MDA-MB-231 cells [2]): above 50% | cell viability plateau (Jurkat cells [4]; all doses tested): above 50% | cell viability plateau (Jurkat cells [5]; all doses tested): above 50% | cell viability plateau (MDA-MB-231 cells [6]): above 50%

Compound: Triton X-100
effect on cell viability (cancer cell lines): compromised cell viability

Compound: ethidium homodimer 1
effect on cell death and proliferation (cells): did not affect cell death and proliferation
